Results on seven substances are retold here after patent publication US20220280581A1, “BENEFICIAL BACTERIA AND SECRETORY IMMUNOGLOBULIN A” (priority 2019, published 2022).

The subject of assay [1] is pooled human milk SIgA. As to the kind of experiment: Binding of SIgA to bacteria by flow cytometry. Conditions: for binding of a heterogeneous pool of SIgA: 0-1000 μg SIgA per 1e7 CFU; for association to SIgA when first grown on 2′FL: 1% 2′FL in the final media. The procedure: Binding of sIgA to bacteria. Bacteria from Table 1 were resuspended in 0.8% saline at a concentration of 1×10^7 CFU/mL. SIgA was then added at 0, 10, 100, 500 and 1000 μg per 1×10^7 colony forming units (CFU) of bacteria and incubated at 24° C. for 30 min. Following incubation, bacteria were pelleted at 14000×g for 4 min and washed with saline twice to remove non-adherent SIgA.
(§1) Flow cytometry and immunofluorescence: To measure binding cells were fixed using 4% w/v paraformaldehyde for 30 min, washed with PBS, then incubated with 1% bovine serum albumin (BSA) blocking buffer for 1 h. Cells were stained with 1/100 dilution SYTOT™ 9 (S34854, ThermoFisher) for live cells and goat anti-human IgA conjugated to Alexa 647 fluorophore using 1/50 dilution in 1% BSA (ab96998, Abcam). For flow cytometry, all samples were acquired and analyzed on a FACScan flow cytometer (BD Biosciences, Mountain View, Calif.) using the CellQuest software program. For live/dead analyses following in vitro digestion, cells were stained with SYTOT™ 9 (1/100 dilution) for live cells and propidium iodine (1/1000 dilution) for dead cells or cells with compromised membranes.
In general terms: In flow cytometry, cells or beads pass a laser one at a time.

Assay [2] is described as follows: Protection from simulated gastric digestion in vitro (pepsin, pancreatin): viability by CFU plating and live/dead flow cytometry. The settings on record: for Slope (CFU/% SIgA): regression of viable CFU post-digestion on SIgA association. The procedure: as §1
Protection from digestion using an in vitro model. To determine the extent to which the SIgA-glycan-mediated-bacterial complexes that included the Ig-bound secretory component (SC) where able to protect bacteria and SIgA from proteolytic degradation, an in vitro model was used. Simulated gastric digestion was performed by resuspending bacteria in 200 ul of 0.1% porcine pepsin (Sigma—Aldrich, St. Louis, Mo.) in PBS at pH 4. Samples were placed in an incubating shaker (New Brunswick Scientific, Edison, N.J.) at 140 rpm at 37° C. for 15 min. Cells were then pelleted and resuspended in 200 ul of 0.04% pancreatin (Sigma— Aldrich) in PBS pH 7, and the samples placed in the incubator shaker at 140 rpm at 37° C. for 5 min. Bacteria were pelleted and washed twice with PBS to remove residual enzymes, then evaluated for viability through CFU serial dilution and spot plating, and with live/dead flow cytometry analysis.

For assay [3], the system named is Caco-2 colonic cells co-cultured with HT29-MTX E12 cells. As to the kind of experiment: Bacterial adherence to colonocyte co-cultures. The class given is cell-based, human. How it is done:
(§2) Mammalian cell culture binding assays: Caco-2 colonic cells were co-cultured with HT29-MTX E12 cells at a ratio of 3:1 and seeded at a density of 5×10^4 cells/well in 24-well plates, maintained as described above. On day 1 post-confluence, medium was removed, the cells washed once with PBS, and DMEM without FBS or antibiotics was added prior to binding assay. Bacteria were prepared as described above, with or without SIgA and resuspended in PBS at 1×10^7 CFU/mL. 4×10^5 CFU were added to the colonocytes and the plate was centrifuged at 600×g for 5 min to ensure bacteria association with the cells. After 2 h of incubation at 37° C. in 5% CO2, medium was removed and saved for cytokine analysis. Cells were washed once with PBS, and to one set of replicates, cells were lysed with 0.5% Triton X-100 and serial dilutions of the cell suspensions were plated on MRS and incubated anaerobically at 37° C. overnight to test viability. To a second set of replicates, TRIzol (15596018; Life Technologies) was added directly to washed cells for RNA extraction.

Assay [4] relates to colonocytes (Caco-2 / HT29-MTX E12 co-culture). As to the kind of experiment: Colonocyte barrier function and immune gene expression (RT-qPCR). It counts as cell-based, human. Conditions: 1000 μg SIgA per 1e7 CFU vs no SIgA. How it is done:
as §2
Mammalian cell culture RT-qPCR for gene expression: Total RNA from mammalian co-culture samples were extracted via the TRIzol method. Total RNA (1 μg) was treated with Turbo DNAse (EN0521; Thermo Fisher) to remove genomic DNA, then used for reverse transcription producing cDNA, performed according to manufacturer protocol (High Capacity Complementary DNA Reverse Transcription Kit; Applied Biosystems). Gene list and primer sequences can be found in Table 2. Real-time PCR was performed with the Quantistudio 3 qPCR thermocycler (Applied Biosystems) using SyberGreen master mix (Life Technologies). Actin and GADPH were used as house-keeping genes. Analysis was performed using Quantistudio Design and Analysis Software v.1.4.3.
A general note: Quantitative PCR measures a nucleic acid by following its amplification.

In assay [5] the test system is SIgA. The assay is described as follows: Loss of SIgA-bacteria association after deglycosylation. The class given is binding.
Assay [6] relates to pooled human milk SIgA. As to the kind of experiment: Binding of SIgA to bacteria by flow cytometry. Conditions: 100 μg SIgA to 1e6 cfu bacteria.

For “Bifidobacterium longum ssp. longum SC596”, the “binding of a heterogeneous pool of SIgA” value in assay [1] is on record as “concentration dependent”. The “association to SIgA when first grown on 2′FL” value in assay [1] is reported as “increased association to SIgA”. For the same substance, the “live bacteria post-digestion (live-dead flow cytometry)” value in assay [2] (1000 μg SIgA/1e7 CFU) is recorded as 50.85%; in assay [2] (no SIgA) it was 29.05%. Further, the “increased adherence to colonocytes with SIgA association” value in assay [3] (first grown on 2′FL) stood at 4e3. In addition, the “Slope (adherent CFU/% SIgA association)” value in assay [3] (substrate 2'FL) was 37.7 adherent CFU/% SIgA associatio; in assay [3] (substrate all), 27.1 adherent CFU/% SIgA associatio; in assay [3] (substrate glucose), 28.5 adherent CFU/% SIgA associatio; in assay [3] (substrate lactose), −13.3 adherent CFU/% SIgA associatio.

Turning to Lactobacillus acidophilus NCFM, the “slope m of association to SIgA post-digestion” value in assay [2] (grown on glucose) is listed as −8.9e3 CFU/% SIgA association. Also, the “Slope (CFU/% SIgA)” value in assay [2] (substrate glucose) is −8952 CFU/% SIgA; in assay [2] (substrate lactose), 38918 CFU/% SIgA. Further, the “Slope (adherent CFU/% SIgA association)” value in assay [3] (substrate all) was −3134.0 adherent CFU/% SIgA associatio; in assay [3] (substrate glucose), −3014.0 adherent CFU/% SIgA associatio; in assay [3] (substrate lactose), −3341.0 adherent CFU/% SIgA associatio.

On to Lactobacillus rhamnosus ATCC 7469, for which the “binding of a heterogeneous pool of SIgA” value in assay [1] is given as “concentration dependent”. The “difference post-digestion with or without SIgA” value in assay [2] (grown in 1% glucose) is reported as “no significant difference”. Also, the results for the “Slope (CFU/% SIgA)” value in assay [2] (substrate 2′FL), in assay [2] (substrate glucose) and in assay [2] (substrate lactose) were −39446 CFU/% SIgA, −2121 CFU/% SIgA and −23719 CFU/% SIgA, respectively. For the same substance, in assay [3] (lactose-grown), the “slope of regression plot of adherent bacteria with SIgA association” value was 37.7 adherent CFU per % population associated with SIgA. The “Slope (adherent CFU/% SIgA association)” value in assay [3] (substrate 2'FL) is 333.3 adherent CFU/% SIgA associatio; in assay [3] (substrate glucose) it was −138.4 adherent CFU/% SIgA associatio; in assay [3] (substrate lactose), 456.6 adherent CFU/% SIgA associatio. Besides, in assay [4], the “decrease of IL-8 gene expression when first complexed with SIgA” value is 4 fold. Also, the “decrease of pIgR gene expression when first complexed with SIgA” value in assay [4] is given as 4 fold.

Turning to Lactobacillus reuteri DSM, in assay [2] (grown on glucose), the “slope m of association to SIgA post-digestion” value is on record as −3.9e4 CFU/% SIgA association. The “Slope (CFU/% SIgA)” value was −38517 CFU/% SIgA in assay [2] (substrate glucose) and 47155 CFU/% SIgA in assay [2] (substrate lactose). Also, the figures for the “Slope (adherent CFU/% SIgA association)” value in assay [3] (substrate all), in assay [3] (substrate glucose) and in assay [3] (substrate lactose) were −4652.0 adherent CFU/% SIgA associatio, −9455.0 adherent CFU/% SIgA associatio and 524.1 adherent CFU/% SIgA associatio, respectively. For the same substance, in assay [5], the “loss of SIgA-bacteria complexes after deglycosylation” value is “over 7%”.

Consider Bifidobacterium pseudocatenulatum MP80, for which the “association to SIgA when first grown on 2′FL” value in assay [1] was “increased association to SIgA”. Moreover, the viable bacteria post-digestion is listed as 4e6 in assay [2] (grown on glucose, 100 or 1000 μg SIgA/1e7 CFU) and 2e5 CFU in assay [2] (grown on glucose, no SIgA). Further, in assay [2] (post-digestion, grown on glucose), the “slope of regression plot of viability with SIgA association” value was 8.2e4 CFU per % population SIgA association. For the same substance, the “Slope (CFU/% SIgA)” value is on record as 51114 CFU/% SIgA in assay [2] (substrate 2′FL) and 82548 CFU/% SIgA in assay [2] (substrate glucose). Besides, the “Slope (adherent CFU/% SIgA association)” value in assay [3] (substrate 2'FL) was −50.6 adherent CFU/% SIgA associatio; in assay [3] (substrate all), 32.0 adherent CFU/% SIgA associatio; in assay [3] (substrate glucose) it was 14.2 adherent CFU/% SIgA associatio. The “ability to bind to pooled human milk SIgA” value in assay [6] was 40.3%. Also, the “increase in SIgA binding when first grown on an HMO substrate” value in assay [6] is reported as 61.7%.

With Bifidobacterium breve SC95, the “live bacteria post-digestion (live-dead flow cytometry)” value in assay [2] (1000 μg SIgA/1e7 CFU) is on record as 57.8%; in assay [2] (no SIgA), “no viable bacteria”. Further, the results for the “Slope (CFU/% SIgA)” value in assay [2] (substrate LNnT) and in assay [2] (substrate lactose) were 223.1 CFU/% SIgA and −106.9 CFU/% SIgA, respectively. The “Slope (adherent CFU/% SIgA association)” value is listed as 19516.0 adherent CFU/% SIgA associatio in assay [3] (substrate LNnT), 13289.0 adherent CFU/% SIgA associatio in assay [3] (substrate all), 9083.0 adherent CFU/% SIgA associatio in assay [3] (substrate glucose) and 4617.0 adherent CFU/% SIgA associatio in assay [3] (substrate lactose). In addition, the “ability to bind to pooled human milk SIgA” value in assay [6] was determined as 16%. Further, the “increase in SIgA binding when first grown on an HMO substrate” value in assay [6] is reported as 45%.

In the case of Bifidobacterium bifidum SC555, the figures for the “Slope (adherent CFU/% SIgA association)” value in assay [3] (substrate 2'FL), in assay [3] (substrate all) and in assay [3] (substrate glucose) were 16.9 adherent CFU/% SIgA associatio, 896.4 adherent CFU/% SIgA associatio and 2288.0 adherent CFU/% SIgA associatio, respectively.
